Reference: ChEMBL document CHEMBL3044730, “Synthesis, antimycobacterial, antiviral, antimicrobial activities, and QSAR studies of nicotinic acid benzylidene hydrazide derivatives” (Med Chem Res, 2012)
Values after ≈ are worked out from the molar mass of the structure shown.

Test system: not listed separately
Assay: Cytotoxicity against Homo sapiens (human) HEL cells assessed as alteration in cell morphology by microscopy
Type: cell-based
Conditions: not given
With `O=C(N/N=C/c1ccccc1Cl)c1cccnc1` the CC50 was 12 µg/mL (≈ 46.2 µM) and the MCC was greater than 100 µg/mL.
`O=C(N/N=C/c1ccccc1Br)c1cccnc1` gave a CC50 of 2.6 µg/mL (≈ 8.55 µM) and an MCC of 100 µg/mL.

Test system: Candida albicans
Assay: Antimicrobial activity against Candida albicans after 7 days by serial dilution method
Type: functional
Parameters: unit not given here
Conditions: not given
With `O=C(N/N=C/c1ccccc1Cl)c1cccnc1` the “-logMIC” value was 1.32.
In the case of `O=C(N/N=C/c1ccccc1Br)c1cccnc1`, the “-logMIC” value was 1.69.

Test system: Human alphaherpesvirus 1
Assay: Antiviral activity against TK(-) aciclovir-resistant Human herpesvirus 1 strain KOS infected in human HEL cells assessed as inhibition of virus-induced cytopathicity
Type: functional, organism-based
Conditions: Human alphaherpesvirus 1, KOS
For `O=C(N/N=C/c1ccccc1Cl)c1cccnc1`, the EC50 was greater than 100 µg/mL.
For `O=C(N/N=C/c1ccccc1Br)c1cccnc1`, the EC50 was greater than 20 µg/mL.

Test system: Sindbis virus
Assay: Antiviral activity against Sindbis virus infected Vero cells assessed as inhibition of virus-induced cytopathicity
Type: functional, organism-based
Conditions: not given
Compound `O=C(N/N=C/c1ccccc1Cl)c1cccnc1` has an EC50 greater than 100 µg/mL.
In the case of `O=C(N/N=C/c1ccccc1Br)c1cccnc1`, the EC50 was greater than 100 µg/mL.

Test system: Human herpesvirus 3 strain Oka vaccine
Assay: Antiviral activity against Human herpesvirus 3 strain Oka vaccine OKA 07-1 (Varicella zoster virus) infected in human HEL cells assessed as inhibition of virus-induced cytopathicity
Type: functional, organism-based
Conditions: Human alphaherpesvirus 3, OKA 07-1, HEL
`O=C(N/N=C/c1ccccc1Cl)c1cccnc1` gave an EC50 greater than 100 µg/mL.
`O=C(N/N=C/c1ccccc1Br)c1cccnc1` showed an EC50 greater than 51 µg/mL.

Test system: not listed separately
Assay: Cytotoxicity against Chlorocebus aethiops (African green monkey) Vero cells assessed as alteration in cell morphology by microscopy
Type: cell-based
Conditions: chlorocebus sabaeus
`O=C(N/N=C/c1ccccc1Cl)c1cccnc1` showed an MCC greater than 100 µg/mL.
For `O=C(N/N=C/c1ccccc1Br)c1cccnc1`, the MCC was greater than 100 µg/mL.

Test system: Coxsackievirus B4
Assay: Antiviral activity against Human coxsackievirus B4 infected Vero cells assessed as inhibition of virus-induced cytopathicity
Type: functional, organism-based
Conditions: Enterovirus B
Compound `O=C(N/N=C/c1ccccc1Cl)c1cccnc1` has an EC50 greater than 100 µg/mL.
For `O=C(N/N=C/c1ccccc1Br)c1cccnc1`, the EC50 was greater than 100 µg/mL.

Test system: not listed separately
Assay: Cytotoxicity against Homo sapiens (human) HeLa cells assessed as alteration in cell morphology by microscopy
Type: cell-based
Conditions: not given
Compound `O=C(N/N=C/c1ccccc1Cl)c1cccnc1` has an MCC of 100 µg/mL.
`O=C(N/N=C/c1ccccc1Br)c1cccnc1` gave an MCC greater than 100 µg/mL.

Test system: not listed separately
Assay: Cytotoxicity against Homo sapiens (human) MT4 cells after 4 days by MTT assay
Type: cell-based
Conditions: not given
Compound `O=C(N/N=C/c1ccccc1Cl)c1cccnc1` has a CC50 at 96 h of no less than 0.57 µg/mL.
For `O=C(N/N=C/c1ccccc1Br)c1cccnc1`, the CC50 at 96 h was no less than 0.22 µg/mL.

Test system: Human immunodeficiency virus 2
Assay: Antiviral activity against Human immunodeficiency virus type 2 (ISOLATE ROD) infected MT4 cells assessed as inhibition of virus-induced cytopathic effect after 4 days by MTT assay
Type: functional, organism-based
Conditions: Human immunodeficiency virus 2, ISOLATE ROD, MT4, 96 h
Work on `O=C(N/N=C/c1ccccc1Cl)c1cccnc1` yielded an EC50 greater than 0.57 µg/mL.
Compound `O=C(N/N=C/c1ccccc1Br)c1cccnc1` has an EC50 greater than 0.22 µg/mL.

Test system: Escherichia coli
Assay: Antimicrobial activity against Escherichia coli after 24 hr by serial dilution method
Type: functional
Parameters: unit not given here
Conditions: not given
With `O=C(N/N=C/c1ccccc1Cl)c1cccnc1` the “-logMIC” value was 1.02.
In the case of `O=C(N/N=C/c1ccccc1Br)c1cccnc1`, the “-logMIC” value was 1.39.

Test system: Human alphaherpesvirus 2
Assay: Antiviral activity against Human herpesvirus 2 strain G infected human HEL cells assessed as inhibition of virus-induced cytopathicity by microscopy
Type: functional, organism-based
Conditions: Human alphaherpesvirus 2, strain G
For `O=C(N/N=C/c1ccccc1Cl)c1cccnc1`, the EC50 was greater than 100 µg/mL.
`O=C(N/N=C/c1ccccc1Br)c1cccnc1` showed an EC50 greater than 20 µg/mL.

Test system: Candida albicans
Assay: Antimicrobial activity against Candida albicans after 2 days by serial dilution method
Type: functional
Parameters: unit not given here
Conditions: not given
With `O=C(N/N=C/c1ccccc1Cl)c1cccnc1` the “-logMIC” value was 1.32.
For `O=C(N/N=C/c1ccccc1Br)c1cccnc1`, the “-logMIC” value was 1.39.

Test system: Bacillus subtilis
Assay: Antimicrobial activity against Bacillus subtilis after 24 hr by serial dilution method
Type: functional
Parameters: unit not given here
Conditions: not given
For `O=C(N/N=C/c1ccccc1Cl)c1cccnc1`, the “-logMIC” value was 1.02.
In the case of `O=C(N/N=C/c1ccccc1Br)c1cccnc1`, the “-logMIC” value was 1.39.

Test system: Respiratory syncytial virus
Assay: Antiviral activity against Respiratory syncytial virus infected human HeLa cells assessed as inhibition of virus-induced cytopathicity by microscopy
Type: functional, organism-based
Conditions: not given
`O=C(N/N=C/c1ccccc1Cl)c1cccnc1` showed an EC50 greater than 20 µg/mL.
`O=C(N/N=C/c1ccccc1Br)c1cccnc1` showed an EC50 greater than 100 µg/mL.

Test system: Coxsackievirus B4
Assay: Antiviral activity against Human coxsackievirus B4 infected human HeLa cells assessed as inhibition of virus-induced cytopathicity by microscopy
Type: functional, organism-based
Conditions: Enterovirus B
`O=C(N/N=C/c1ccccc1Cl)c1cccnc1` showed an EC50 greater than 20 µg/mL.
`O=C(N/N=C/c1ccccc1Br)c1cccnc1` gave an EC50 greater than 100 µg/mL.

Test system: Human immunodeficiency virus 1
Assay: Antiviral activity against Human immunodeficiency virus 1 IIIB infected MT4 cells assessed as inhibition of virus-induced cytopathic effect after 4 days by MTT assay
Type: functional, organism-based
Conditions: MT4, 96 h
`O=C(N/N=C/c1ccccc1Cl)c1cccnc1` showed an EC50 greater than 0.57 µg/mL.
`O=C(N/N=C/c1ccccc1Br)c1cccnc1` showed an EC50 greater than 0.22 µg/mL.

Test system: Mycobacterium tuberculosis
Assay: Antimicrobial activity against Mycobacterium tuberculosis by agar dilution method
Type: functional
Conditions: not given
For `O=C(N/N=C/c1ccccc1Cl)c1cccnc1`, the MIC was greater than 25 µg/mL.
Work on `O=C(N/N=C/c1ccccc1Br)c1cccnc1` yielded an MIC greater than 25 µg/mL.

Test system: Human respirovirus 3
Assay: Antiviral activity against Human parainfluenza virus 3 infected Vero cells assessed as inhibition of virus-induced cytopathicity by microscopy
Type: functional, organism-based
Conditions: Human respirovirus 3, Vero
In the case of `O=C(N/N=C/c1ccccc1Cl)c1cccnc1`, the EC50 was greater than 100 µg/mL.
Work on `O=C(N/N=C/c1ccccc1Br)c1cccnc1` yielded an EC50 greater than 100 µg/mL.

Test system: Vaccinia virus
Assay: Antiviral activity against Vaccinia virus infected human HEL cells assessed as inhibition of virus-induced cytopathicity by microscopy
Type: functional, organism-based
Conditions: Orthopoxvirus vaccinia
`O=C(N/N=C/c1ccccc1Cl)c1cccnc1` gave an EC50 greater than 100 µg/mL.
Work on `O=C(N/N=C/c1ccccc1Br)c1cccnc1` yielded an EC50 greater than 20 µg/mL.

Test system: Staphylococcus aureus
Assay: Antimicrobial activity against Staphylococcus aureus after 24 hr by serial dilution method
Type: functional
Parameters: unit not given here
Conditions: not given
For `O=C(N/N=C/c1ccccc1Cl)c1cccnc1`, the “-logMIC” value was 1.32.
For `O=C(N/N=C/c1ccccc1Br)c1cccnc1`, the “-logMIC” value was 1.09.

Test system: Human herpesvirus 5 strain AD169
Assay: Antiviral activity against Human herpesvirus 5 strain AD169 Davis infected human HEL cells assessed as inhibition of virus-induced cytopathicity by microscopy
Type: functional, organism-based
Conditions: Human betaherpesvirus 5, Davis
Work on `O=C(N/N=C/c1ccccc1Cl)c1cccnc1` yielded an EC50 greater than 100 µg/mL.
`O=C(N/N=C/c1ccccc1Br)c1cccnc1` gave an EC50 greater than 100 µg/mL.

Test system: Punta Toro virus
Assay: Antiviral activity against Punta Toro virus infected Vero cells assessed as inhibition of virus-induced cytopathicity
Type: functional, organism-based
Conditions: not given
`O=C(N/N=C/c1ccccc1Cl)c1cccnc1` showed an EC50 greater than 100 µg/mL.
For `O=C(N/N=C/c1ccccc1Br)c1cccnc1`, the EC50 was greater than 100 µg/mL.

Test system: Human alphaherpesvirus 1
Assay: Antiviral activity against Human herpesvirus 1 strain KOS infected in human HEL cells assessed as inhibition of virus-induced cytopathicity by microscopy by microscopy
Type: functional, organism-based
Conditions: Human alphaherpesvirus 1, KOS
With `O=C(N/N=C/c1ccccc1Cl)c1cccnc1` the EC50 was greater than 100 µg/mL.
In the case of `O=C(N/N=C/c1ccccc1Br)c1cccnc1`, the EC50 was greater than 20 µg/mL.

Test system: Mammalian orthoreovirus 1
Assay: Antiviral activity against Mammalian orthoreovirus 1 infected Vero cells assessed as inhibition of virus-induced cytopathicity by microscopy
Type: functional, organism-based
Conditions: Mammalian orthoreovirus 1, Vero
Work on `O=C(N/N=C/c1ccccc1Cl)c1cccnc1` yielded an EC50 greater than 100 µg/mL.
With `O=C(N/N=C/c1ccccc1Br)c1cccnc1` the EC50 was greater than 100 µg/mL.

Test system: Vesicular stomatitis virus
Assay: Antiviral activity against Vesicular stomatitis virus infected human HeLa cells assessed as inhibition of virus-induced cytopathicity by microscopy
Type: functional, organism-based
Conditions: not given
`O=C(N/N=C/c1ccccc1Cl)c1cccnc1` gave an EC50 greater than 20 µg/mL.
`O=C(N/N=C/c1ccccc1Br)c1cccnc1` gave an EC50 greater than 100 µg/mL.
